# Results taken from patent US20200037609A1, “HERBICIDAL COMPOSITIONS AND METHODS OF USE THEREOF” (The Regents of the University of California, priority 2017, published 2020).
# Tested on: green bean seedlings
# Experiment: Agar-based plant growth inhibition assay on MS media
# Format: in vivo
# Conditions: 50 μM aspterric acid, day 3 and day 7
# Description: Sterile green bean seedlings were plated on MS media containing 50 μM aspterric acid and 1% DMSO (to increase the solubility of aspterric acid) on day 0. MS media containing only 1% DMSO was used as a control. Growth was assessed on day 3 and day 7.
smiles,measurement,value
CC(C)=C1CC[C@]23CO[C@H](C2)[C@@](O)(C(=O)O)CC[C@@H]13 [aspterric acid],growth of green bean seedlings on MS media,significant vegetative growth inhibition
